Experimental data from patent US8946203B2, “Benzodioxane inhibitors of leukotriene production” (Boehringer Ingelheim International GmbH, priority 2012, dated 2015).
Where two headings read alike, the source gives them in different places.

How the values were obtained:
[1] = tested on: synthesis of LTB4 in human whole blood; experiment: human whole blood (HWB) assay, LTB4 production inhibition after calcimycin stimulation; format: cell-based; conditions: heparinized human whole blood, calcimycin 20 μM, plasma LTB4 by HTRF
Method in brief: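 Heparinized human whole blood preincubated with compound 15 min at 37 °C, then stimulated with 20 μM (final) calcimycin for 30 min at 37 °C. Plasma LTB4 measured by antibody-based HTRF; IC50 reported.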

human LTA4 hydrolase = target: T1, human LTA4 hydrolase (Homo sapiens, UniProt P09960); experiment: LTA4H Enzyme assay (cleavage of Arg-AMC, fluorescence); format: biochemical
T1 sequence (P09960 1-611): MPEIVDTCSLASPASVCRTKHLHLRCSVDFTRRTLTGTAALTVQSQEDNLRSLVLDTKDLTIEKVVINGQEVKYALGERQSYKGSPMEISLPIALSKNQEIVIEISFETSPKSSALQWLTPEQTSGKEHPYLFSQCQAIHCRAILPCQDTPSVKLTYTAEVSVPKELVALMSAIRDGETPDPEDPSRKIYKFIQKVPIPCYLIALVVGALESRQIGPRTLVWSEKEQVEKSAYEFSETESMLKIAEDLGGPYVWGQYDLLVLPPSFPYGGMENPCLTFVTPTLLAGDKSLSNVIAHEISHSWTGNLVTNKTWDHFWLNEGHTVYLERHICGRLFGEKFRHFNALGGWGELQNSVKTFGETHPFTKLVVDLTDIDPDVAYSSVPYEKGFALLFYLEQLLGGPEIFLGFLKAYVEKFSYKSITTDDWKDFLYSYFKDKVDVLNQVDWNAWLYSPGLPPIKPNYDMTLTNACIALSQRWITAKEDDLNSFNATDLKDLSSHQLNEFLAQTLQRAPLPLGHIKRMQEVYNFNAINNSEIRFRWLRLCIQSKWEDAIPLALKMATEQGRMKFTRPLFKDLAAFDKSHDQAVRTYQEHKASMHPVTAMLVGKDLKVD
Method in brief: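 Peptidase activity of human LTA4H (1 nM final) on Arg-AMC (50 μM final), with compound, 1 h at room temperature. Buffer: 50 mM Tris-HCl pH 7.5, 100 mM KCl, 0.5% BSA.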

[2] = LTA4H Enzyme 1 nM, Arg-AMC substrate 50 μM, room temperature 1 h, fluorescence, read-out: IC50 values of LTA4H Enzyme assay

SMILES | IC50 [1] [nM] | IC50 (human LTA4 hydrolase; [2]) [nM] | IC50 (human LTA4 hydrolase) [nM]
NC(=O)c1nnc2n1CCN(Cc1ccc([C@H]3COc4cccnc4O3)cc1)CC2 [Example 245, 6-[(S)-4-(2,3-dihydro-[1,4]dioxino[2,3-b]pyridin-3-yl)-benzyl]-5,6,7,8-tetrahydro-4H-1,2,3a,6-tetraaza-azulene-3-carboxylic acid amide] | 130 | 0.32 | 
CNC(=O)c1nnc2n1CCN(Cc1ccc([C@H]3COc4cccnc4O3)cc1)CC2 [Example 246, 6-[(S)-4-(2,3-Dihydro-[1,4]dioxino[2,3-b]pyridin-3-yl)-benzyl]-5,6,7,8-tetrahydro-4H-1,2,3a,6-tetraaza-azulene-3-carboxylic acid methylamide] | 91 | 0.29 | 
C[C@H](O)CNC(=O)[C@H]1[C@@H]2CN(Cc3ccc([C@H]4COc5cccnc5O4)cc3)C[C@@H]21 [Example 247, [(1α,5α,6α)-3-[(S)-4-(2,3-dihydro-[1,4]dioxino[2,3-b]pyridin-3-yl)-benzyl]-3-aza-bicyclo[3.1.0]hexane]-6-carboxylic acid ((S)-2-hydroxy-propyl)-amide] | 68 | 0.17 | 
C[C@@H](CO)NC(=O)[C@H]1[C@@H]2CN(Cc3ccc([C@H]4COc5cccnc5O4)cc3)C[C@@H]21 [Example 248, [(1α,5α,6α)-3-[(S)-4-(2,3-Dihydro-[1,4]dioxino[2,3-b]pyridin-3-yl)-benzyl]-3-aza-bicyclo[3.1.0]hexane]-6-carboxylic acid ((S)-2-hydroxy-1-methyl-ethyl)-amide] | 58 | 0.17 | 
N#Cc1cnc2n1CCN(Cc1ccc([C@H]3COc4cccnc4O3)cc1)C2 [Example 249, 7-[(S)-4-(2,3-Dihydro-[1,4]dioxino[2,3-b]pyridin-3-yl)-benzyl]-5,6,7,8-tetrahydro-imidazo[1,2-a]pyrazine-3-carbonitrile] | 58 | 0.25 | 
CC(=O)N[C@H]1[C@@H]2CN(Cc3ccc([C@H]4COc5cccnc5O4)cc3)C[C@@H]21 [Example 250, N-{(1α,5α,6α)-3-[(S)-4-(2,3-Dihydro-[1,4]dioxino[2,3-b]pyridin-3-yl)-benzyl]-3-aza-bicyclo[3.1.0]hex-6-yl}-acetamide] | 84 | 0.56 | 
CC(C)(O)CNC(=O)[C@H]1[C@@H]2CN(Cc3ccc([C@H]4COc5cccnc5O4)cc3)C[C@@H]21 [Example 251, [(1α,5α,6α)-3-[(S)-4-(2,3-Dihydro-[1,4]dioxino[2,3-b]pyridin-3-yl)-benzyl]-3-aza-bicyclo[3.1.0]hexane-6-carboxylic acid (2-hydroxy-2-methyl-propyl)]-amide] | 63 | 0.16 | 
COCC(=O)NC1CCN(Cc2ccc([C@H]3COc4cccnc4O3)cc2)CC1 [Example 252, N-{1-[(S)-4-(2,3-Dihydro-[1,4]dioxino[2,3-b]pyridin-3-yl)-benzyl]-piperidin-4-yl}-2-methoxy-acetamide] | 42 | 0.15 | 
O=C(CO)N1CCN(Cc2ccc([C@H]3COc4cccnc4O3)cc2)CC1 [Example 253, 1-{4-[(S)-4-(2,3-Dihydro-[1,4]dioxino[2,3-b]pyridin-3-yl)-benzyl]-piperazin-1-yl}-2-hydroxy-ethanone] | 110 | 0.7 | 
O=C(O)c1ccc(C2CN(Cc3ccc([C@H]4COc5ccccc5O4)cc3)C2)cc1 [Example 254, 4-{1-[(S)-4-(2,3-Dihydro-benzo[1,4]dioxin-2-yl)-benzyl]-azetidin-3-yl}-benzoic acid] | 84 | 0.24 | 
CC(C)(O)CNC(=O)C1CCN(Cc2ccc([C@H]3COc4cccnc4O3)cc2)CC1 [Example 255, 1-[(S)-4-(2,3-Dihydro-[1,4]dioxino[2,3-b]pyridin-3-yl)-benzyl]-piperidine-4-carboxylic acid (2-hydroxy-2-methyl-propyl)-amide] | 76 | 0.17 | 
CS(=O)(=O)CC(=O)N1C[C@@H]2C[C@H]1CN2Cc1ccc([C@H]2COc3cccnc3O2)cc1 [Example 256, 1-{(1S,4S)-5-[(S)-4-(2,3-Dihydro-[1,4]dioxino[2,3-b]pyridin-3-yl)-benzyl]-2,5-diaza-bicyclo[2.2.1]hept-2-yl}-2-methanesulfonyl-ethanone] | 110 | 0.49 | 
COCC(=O)N1CCCN(Cc2ccc([C@H]3COc4cccnc4O3)cc2)CC1 [Example 257, 1-{4-[(S)-4-(2,3-Dihydro-[1,4]dioxino[2,3-b]pyridin-3-yl)-benzyl]-[1,4]diazepan-1-yl}-2-methoxy-ethanone] | 270 | 0.48 | 
Nc1nc2c(s1)CN(Cc1ccc([C@H]3COc4cccnc4O3)cc1)CC2 [Example 258, 5-[(S)-4-(2,3-Dihydro-[1,4]dioxino[2,3-b]pyridin-3-yl)-benzyl]-4,5,6,7-tetrahydro-thiazolo[5,4-c]pyridin-2-ylamine] | 210 | 0.37 | 
NC(=O)N[C@H]1C[C@H]2CC[C@@H](C1)N2Cc1ccc([C@H]2COc3cccnc3O2)cc1 [Example 259, {(endo)-8-[(S)-4-(2,3-Dihydro-[1,4]dioxino[2,3-b]pyridin-3-yl)-benzyl]-8-aza-bicyclo[3.2.1]oct-3-yl}-urea] | 790 |  | 0.3
CONC(=O)CC1CCN(Cc2ccc([C@H]3COc4cccnc4O3)cc2)CC1 [Example 260, 2-{1-[(S)-4-(2,3-Dihydro-[1,4]dioxino[2,3-b]pyridin-3-yl)-benzyl]-piperidin-4-yl}-N-methoxy-acetamide] | 100 | 0.57 | 
CN[C@H](C)C(=O)NC1CCN(Cc2ccc([C@H]3COc4cccnc4O3)cc2)CC1 [Example 261, (R)-N-{1-[(S)-4-(2,3-Dihydro-[1,4]dioxino[2,3-b]pyridin-3-yl)-benzyl]-piperidin-4-yl}-2-methylamino-propionamide] | 260 | 2.5 | 
CC(C)(O)C(=O)NCC1CCN(Cc2ccc([C@H]3COc4cccnc4O3)cc2)CC1 [Example 262, N-{1-[(S)-4-(2,3-Dihydro-[1,4]dioxino[2,3-b]pyridin-3-yl)-benzyl]-piperidin-4-ylmethyl}-2-hydroxy-2-methyl-propionamide] | 170 | 0.51 | 
CS(=O)(=O)NC[C@@H]1[C@H]2CN(Cc3ccc([C@H]4COc5cccnc5O4)cc3)C[C@@H]12 [Example 263, N-{(1α,5α,6α)-3-[(S)-4-(2,3-Dihydro-[1,4]dioxino[2,3-b]pyridin-3-yl)-benzyl]-3-aza-bicyclo[3.1.0]hex-6-ylmethyl}-methanesulfonamide] | 130 | 0.49 | 
CC(=O)N1C[C@@H]2CC[C@H]1CN2Cc1ccc([C@H]2COc3cccnc3O2)cc1 [Example 264, 1-{(1S,4S)-5-[(S)-4-(2,3-Dihydro-[1,4]dioxino[2,3-b]pyridin-3-yl)-benzyl]-2,5-diaza-bicyclo[2.2.2]oct-2-yl}-ethanone] | 17 | 0.09 | 
O=C(O)C1CCC(C2CCN(Cc3ccc([C@H]4COc5cccnc5O4)cc3)CC2)CC1 (stereo partly drawn) [Example 265, 4-{1-[(S)-4-(2,3-Dihydro-[1,4]dioxino[2,3-b]pyridin-3-yl)-benzyl]-piperidin-4-yl}-cyclohexanecarboxylic acid] | 150 | 0.16 | 
O=C(O)C1CCCN(Cc2ccc([C@H]3COc4ccccc4O3)cc2)CC1 (stereo partly drawn) [Example 266, 1-[(S)-4-(2,3-Dihydro-benzo[1,4]dioxin-2-yl)-benzyl]-azepane-4-carboxylic acid] | 98 | 0.22 | 
O=C(O)[C@H]1[C@@H]2CN(Cc3ccc([C@H]4COc5ccccc5O4)cc3)C[C@@H]21 [Example 267, [(1α,5α,6α)-3-[(S)-4-(2,3-Dihydro-benzo[1,4]dioxin-2-yl)-benzyl]-3-aza-bicyclo[3.1.0]hexane]-6-carboxylic acid] | 73 | 0.3 | 
NC(=O)N1C[C@@H]2C[C@H]1CN2Cc1ccc([C@H]2COc3cccnc3O2)cc1 [Example 268, (1S,4S)-5-[(S)-4-(2,3-Dihydro-[1,4]dioxino[2,3-b]pyridin-3-yl)-benzyl]-2,5-diaza-bicyclo[2.2.1]heptane-2-carboxylic acid amide] | 66 | 0.11 | 
OC1(c2ccccc2)CCN(Cc2ccc([C@H]3COc4cccnc4O3)cc2)CC1 [Example 269, 1-[(S)-4-(2,3-Dihydro-[1,4]dioxino[2,3-b]pyridin-3-yl)-benzyl]-4-phenyl-piperidin-4-ol] | 36 | 0.2 | 
CC(=O)N1CC2CN(Cc3ccc([C@H]4COc5cccnc5O4)cc3)CC2C1 (stereo partly drawn) [Example 270, 1-{5-[(S)-4-(2,3-Dihydro-[1,4]dioxino[2,3-b]pyridin-3-yl)-benzyl]-hexahydro-pyrrolo[3,4-c]pyrrol-2-yl}-ethanone] | 35 | 0.14 | 
